Here are results for 31 compounds from ChEMBL document CHEMBL1125661, “2-Alkoxyadenosines: potent and selective agonists at the coronary artery A2 adenosine receptor” (J Med Chem, 1991).

What is called EC50 is the concentration needed to bring the measured effect to its halfway point. Low values mean a more potent agent, high ones a less potent agent.

Assay [1] deals with T1, Adenosine A2 receptor (Homo sapiens, UniProt P29275+P29274).
Description: Coronary arteries vasodilation at the adenosine A2 receptor in langendorff guinea pig heart preparation
Assay [2] concerns the target T2, Adenosine receptor A1 (Cavia porcellus, UniProt P47745).
T2 sequence (P47745 whole entry): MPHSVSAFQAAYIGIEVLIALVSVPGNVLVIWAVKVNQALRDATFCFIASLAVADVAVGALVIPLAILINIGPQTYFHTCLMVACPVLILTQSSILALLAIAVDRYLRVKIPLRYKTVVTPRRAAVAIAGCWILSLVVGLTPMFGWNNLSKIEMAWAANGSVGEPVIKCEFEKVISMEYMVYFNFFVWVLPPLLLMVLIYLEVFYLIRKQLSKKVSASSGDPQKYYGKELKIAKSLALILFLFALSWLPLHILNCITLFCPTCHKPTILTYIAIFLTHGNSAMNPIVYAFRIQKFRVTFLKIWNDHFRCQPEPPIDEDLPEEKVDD
Description: Prolongation of the stimulus-QRS interval by 50% of the maximum response at the adenosine A1 receptor in langendorff guinea pig heart preparation

Assay [3] has as its target T1, Adenosine A2 receptor. This is another data set of the same source.
Description: Coronary arteries vasodilation at the Adenosine A2 receptor in langendorff guinea pig heart preparation
For assay [4], the target named is T2, Adenosine receptor A1. In words: Prolongation of the stimulus-QRS interval by 50% of the maximum response at the Adenosine A1 receptor in langendorff guinea pig heart preparation. It counts as functional.

As to `Nc1nc(OCCCC2CCCCC2)nc2c1ncn2C1O[C@@H](CO)[C@H](O)[C@@H]1O` (stereo partly specified), the “-Log EC50” value in assay [1] amounted to 8.67. The same compound showed an EC50 in assay [2] of 3.72 µM.
Take `CC1(C)C2CCC(C(=O)CCOc3nc(N)c4ncn(C5O[C@@H](CO)[C@H](O)[C@@H]5O)c4n3)C1C2` (stereo partly specified): in assay [3], the “-Log EC50” value is listed as 8.24. This compound also had an EC50 in assay [4] of 4.47 µM.
Taken in the same sequence, the figures for `CCCCOc1nc(N)c2ncn(C3O[C@@H](CO)[C@H](O)[C@@H]3O)c2n1` (stereo partly specified) were 7.28 and 37.2 µM.
Taken in the same sequence, the figures for `CCOc1nc(N)c2ncn(C3O[C@@H](CO)[C@H](O)[C@@H]3O)c2n1` (stereo partly specified) were 6.44 and 79.4 µM.
Consider `Nc1nc(OCCC(=O)[C@H]2CC3CCC2C3)nc2c1ncn2C1O[C@@H](CO)[C@H](O)[C@@H]1O` (stereo partly specified), for which the “-Log EC50” value in assay [1] was found to be 8.35. This compound also gave an EC50 in assay [2] of 8.71 µM.
In the case of `Nc1nc(=O)[nH]c2c1ncn2[C@@H]1O[C@H](CO)[C@@H](O)[C@H]1O` [ISOGUANOSINE], in assay [3], the “-Log EC50” value is 7.1. In assay [4], this compound had an EC50 of 1.15 µM.
Taken in the same sequence, the figures for `CC#CCCOc1nc(N)c2ncn(C3O[C@@H](CO)[C@H](O)[C@@H]3O)c2n1` (stereo partly specified) were 7.56 and 63.1 µM.
As to `CCC(C)Oc1nc(N)c2ncn(C3O[C@@H](CO)[C@H](O)[C@@H]3O)c2n1` (stereo partly specified), the “-Log EC50” value in assay [3] worked out at 5.45. The compound further gave an EC50 in assay [4] of 891 µM.
Taken in the same sequence, the figures for `CC(C)N(c1ccccc1)c1ncnc2c1ncn2C1O[C@H](CO)[C@@H](O)[C@H]1O` (stereo partly specified) were 7.88 and 0.0339 µM.
On to `CCC(CC)CCOc1nc(N)c2ncn(C3O[C@@H](CO)[C@H](O)[C@@H]3O)c2n1` (stereo partly specified), for which the “-Log EC50” value in assay [3] is 7.8. The EC50 in assay [4] is 15.8 µM.
Taken in the same sequence, the figures for `CCCCCOc1nc(N)c2ncn(C3O[C@@H](CO)[C@H](O)[C@@H]3O)c2n1` (stereo partly specified) were 7.94 and 45.7 µM.
Taken in the same sequence, the figures for `Nc1nc(OCCO)nc2c1ncn2C1O[C@@H](CO)[C@H](O)[C@@H]1O` (stereo partly specified) were 7.18 and 2.19 µM.
The matching figures for `O=C(Nc1ncnc2c1ncn2[C@@H]1O[C@H](CO)[C@@H](O)[C@H]1O)[C@H]1C[C@H]2CC[C@@H]1C2`: 7.08 and 0.00537 µM.
Consider `COc1nc(N)c2ncn([C@H]3O[C@@H](CO)[C@H](O)[C@@H]3O)c2n1`, for which, in assay [1], the “-Log EC50” value is given as 6.16. Further, the midpoint of the response in assay [2], the EC50, lay at 9.33 µM.
For the compound `CC(C)Oc1nc(N)c2ncn(C3O[C@@H](CO)[C@H](O)[C@@H]3O)c2n1` (stereo partly specified), the “-Log EC50” value in assay [3] is recorded as 5.86. Further, the EC50 in assay [4] was 224 µM.
Taken in the same sequence, the figures for `CCCCCCOc1nc(N)c2ncn(C3O[C@@H](CO)[C@H](O)[C@@H]3O)c2n1` (stereo partly specified) were 8.42 and 13.8 µM.
For the compound `Nc1nc(OCCC2CCCC2)nc2c1ncn2C1O[C@@H](CO)[C@H](O)[C@@H]1O` (stereo partly specified), in assay [1], the “-Log EC50” value is recorded as 8.41. In assay [2], the EC50 is 14.1 µM.
Take `CCC(CC)COc1nc(N)c2ncn(C3O[C@@H](CO)[C@H](O)[C@@H]3O)c2n1` (stereo partly specified): the “-Log EC50” value in assay [3] came out at 6.54. In assay [4], the EC50 was 35.5 µM.
For `Nc1nc(Nc2ccccc2)nc2c1ncn2[C@@H]1O[C@H](CO)[C@@H](O)[C@H]1O`, the “-Log EC50” value in assay [1] is 7.74. In assay [2], this compound gave an EC50 of 12.6 µM.
On to `Nc1nc(Cl)nc2c1ncn2[C@@H]1O[C@H](CO)[C@@H](O)[C@H]1O`, for which the “-Log EC50” value in assay [1] was 7.6. This compound also showed a concentration for a half-maximal effect (EC50) in assay [2] of 0.191 µM.
With `Nc1nc(OC2CCCC2)nc2c1ncn2[C@H]1O[C@@H](CO)[C@H](O)[C@@H]1O`, the “-Log EC50” value in assay [3] is reported as 7.04. The EC50 in assay [4] is 79.4 µM.
As for `Nc1nc(OCC2CCCCC2)nc2c1ncn2C1O[C@@H](CO)[C@H](O)[C@@H]1O` (stereo partly specified), the “-Log EC50” value in assay [1] was 6.75. The compound also showed an EC50 in assay [2] of 50.1 µM.
In the case of `Nc1nc(OCCCCC2CCCCC2)nc2c1ncn2C1O[C@@H](CO)[C@H](O)[C@@H]1O` (stereo partly specified), the “-Log EC50” value in assay [3] was found to be 8.71. The compound also had an EC50 in assay [4] of 2.63 µM.
Regarding `COc1cc(OC)cc(C(CNc2ncnc3c2ncn3[C@@H]2O[C@H](CO)[C@@H](O)[C@H]2O)c2ccccc2C)c1` (stereo partly specified), in assay [1], the “-Log EC50” value turned out to be 9.35. In assay [2], this compound showed an EC50 of 5.62 µM.
`CC(C)CCOc1nc(N)c2ncn(C3O[C@@H](CO)[C@H](O)[C@@H]3O)c2n1` (stereo partly specified): the “-Log EC50” value in assay [3] turned out to be 7.61. Moreover, a half-maximal response in assay [4] (EC50) required 66.1 µM.
As to `CC(C)CCCOc1nc(N)c2ncn(C3O[C@@H](CO)[C@H](O)[C@@H]3O)c2n1` (stereo partly specified), in assay [3], the “-Log EC50” value came to 8.45. The compound further gave an EC50 in assay [4] of 22.9 µM.
As to `CC(C)COc1nc(N)c2ncn(C3O[C@@H](CO)[C@H](O)[C@@H]3O)c2n1` (stereo partly specified), the “-Log EC50” value in assay [3] amounted to 7.15. In assay [4], it took 107 µM to reach a half-maximal effect (EC50).
`Nc1nc(OCCC2CCCCC2)nc2c1ncn2C1O[C@@H](CO)[C@H](O)[C@@H]1O` (stereo partly specified): the “-Log EC50” value in assay [1] turned out to be 8.99. The EC50 in assay [2] is 8.71 µM.
Regarding `CCCOc1nc(N)c2ncn(C3O[C@@H](CO)[C@H](O)[C@@H]3O)c2n1` (stereo partly specified), the “-Log EC50” value in assay [3] is 7.28. Moreover, in assay [4], the midpoint of the response, the EC50, lay at 148 µM.
Turning to `CCNC(=O)[C@H]1O[C@@H](n2cnc3c(N)nc(NCCc4ccc(CCC(=O)O)cc4)nc32)[C@H](O)[C@@H]1O` [CGS-21680], in assay [4], a half-maximal response (EC50) required 24.5 µM. That is a double-digit micromolar value.
As to `Nc1nc(OC2CCCCC2)nc2c1ncn2C1O[C@@H](CO)[C@H](O)[C@@H]1O` (stereo partly specified), the “-Log EC50” value in assay [3] is on record as 6.18. In addition, the EC50 in assay [4] was 100 µM.
